Assay results taken from patent US20260000642A1 (Tay Therapeutics Limited, priority 2022, published 2026).
Where “and” joins values, the source holds several entries; their conditions need not be identical. Equal entries are not always repeated.

System: collagen-induced arthritis in Lewis rats
Test: Collagen-induced arthritis (CIA) model in rats: body weight, paw volume, clinical scores, clinical observations; as to Detailed Clinical Scores, left forelimb: key of the grades not given here; as to Detailed Clinical Scores, left hind limb: key of the grades not given here; as to Detailed Clinical Scores, right forelimb: key of the grades not given here; as to Detailed Clinical Scores, right hind limb: key of the grades not given here; as to Detailed Clinical Scores, score: key of the grades not given here
Conditions: for Detailed Clinical Scores, left forelimb / Detailed Clinical Scores, left hind limb / Detailed Clinical Scores, right forelimb / Detailed Clinical Scores, right hind limb / Detailed Clinical Scores, score: CIA, per animal ID
[1] = CIA rats, 10 mg/kg, individual animals
[2] = CIA rats, 30 mg/kg, individual animals
[3] = CIA rats, 3 mg/kg twice daily for 21 days
[4] = CIA rats, 30 mg/kg twice daily for 21 days

## CNC(=O)c1[nH]c(C(=O)NC2CCC2)cc1O[C@@H](C)c1ccccc1 [Example 101, N^5-cyclobutyl-N^2-methyl-3-(1-phenylethoxy)-1H-pyrrole-2,5-dicarboxamide]
3 mg/kg, 10 mg/kg and 30 mg/kg twice daily
  amelioration of clinical symptoms associated with CIA: dose-dependent effect
[1]
  Clinical Observation Day 15: Diarrhea
  Clinical Observation Day 19: Diarrhea
[2]
  Clinical Observation Day 12: Diarrhea
  Clinical Observation Day 13: Diarrhea
  Clinical Observation Day 16: Diarrhea
  Clinical Observation Day 18: Diarrhea
  Clinical Observation Day 19: Diarrhea
  Clinical Observation Day 21: Diarrhea
CIA rats, 3 mg/kg twice daily
  diarrhea over the 21-day period: did not have diarrhea
[3]
  effect on hind paw volume relative to CIA + vehicle (group 2): less effective at preventing an increase in paw volume
  increase in body weight, day 21 compared to day 0: 1.7%
CIA rats, 3 mg/kg twice daily for 21 days (group 5)
  animals that gained weight by the end of the study (of 8): 7/8
CIA rats, 3 mg/kg twice daily, day 12
  animals showing signs of disease (of 8): Three animals
CIA rats, 3 mg/kg twice daily, day 14
  animals showing signs of disease (of 8): all animals
CIA rats, 10 mg/kg twice daily (group 6)
  diarrhea over the 21-day period: Two different animals
CIA rats, 10 mg/kg twice daily for 21 days
  weight change, day 21 compared to day 0: approximately 0.5%
CIA rats, 10 mg/kg twice daily for 21 days (group 6)
  animals that gained weight by the end of the study (of 8): 3/8
CIA rats, 10 mg/kg twice daily for 21 days, both paws, p<0.05
  effect on hind paw volume relative to CIA + vehicle (group 2): significantly decreased relative to group 2 on days 19 and 21
CIA rats, 10 mg/kg twice daily, day 19
  animals showing signs of disease (of 8): all animals
CIA rats, 30 mg/kg twice daily (group 7)
  diarrhea over the 21-day period: Four different animals
[4]
  effect on hind paw volume relative to CIA + vehicle (group 2): most effective dose at preventing an increase in paw volume
  weight change, day 21 compared to day 0: approximately 0.5%
CIA rats, 30 mg/kg twice daily for 21 days (group 7)
  animals that gained weight by the end of the study (of 8): 3/8
CIA rats, 30 mg/kg twice daily, day 12
  animals showing signs of disease (of 8): One animal
CIA rats, 30 mg/kg twice daily, increase from around day 19
  hind paw volume increase at plateau relative to day 0: approximately 35%
Day 0, 3 mg/kg
  Detailed Clinical Scores, left forelimb: 0
  Detailed Clinical Scores, left hind limb: 0
  Detailed Clinical Scores, right forelimb: 0
  Detailed Clinical Scores, right hind limb: 0
  Detailed Clinical Scores, score: 0
Day 0, 10 mg/kg
  Detailed Clinical Scores, left forelimb: 0
  Detailed Clinical Scores, left hind limb: 0
  Detailed Clinical Scores, right forelimb: 0
  Detailed Clinical Scores, right hind limb: 0
  Detailed Clinical Scores, score: 0
Day 0, 30 mg/kg
  Detailed Clinical Scores, left forelimb: 0
  Detailed Clinical Scores, left hind limb: 0
  Detailed Clinical Scores, right forelimb: 0
  Detailed Clinical Scores, right hind limb: 0
  Detailed Clinical Scores, score: 0
Day 0, CIA + 3 mg/kg
  Average animal body weight percent change: 0.00%
  Mean animal body weight: 165 g
Day 0, CIA + 10 mg/kg
  Average animal body weight percent change: 0.00%
  Mean animal body weight: 162 g
Day 0, CIA + 30 mg/kg
  Average animal body weight percent change: 0.00%
  Mean animal body weight: 162 g
Day 1, CIA + 3 mg/kg
  Average animal body weight percent change: −0.49%
  Mean animal body weight: 164 g
Day 1, CIA + 10 mg/kg
  Average animal body weight percent change: −1.45%
  Mean animal body weight: 160 g
Day 1, CIA + 30 mg/kg
  Average animal body weight percent change: −0.83%
  Mean animal body weight: 161 g
Day 2, CIA + 3 mg/kg
  Average animal body weight percent change: −0.15%
  Mean animal body weight: 165 g
Day 2, CIA + 10 mg/kg
  Average animal body weight percent change: −1.29%
  Mean animal body weight: 160 g
Day 2, CIA + 30 mg/kg
  Average animal body weight percent change: −1.03%
  Mean animal body weight: 160 g
Day 3, CIA + 3 mg/kg
  Average animal body weight percent change: 1.01%
  Mean animal body weight: 167 g
Day 3, CIA + 10 mg/kg
  Average animal body weight percent change: 0.91%
  Mean animal body weight: 164 g
Day 3, CIA + 30 mg/kg
  Average animal body weight percent change: −1.32%
  Mean animal body weight: 160 g
Day 4, CIA + 3 mg/kg
  Average animal body weight percent change: 0.94%
  Mean animal body weight: 166 g
Day 4, CIA + 10 mg/kg
  Average animal body weight percent change: 0.99%
  Mean animal body weight: 164 g
Day 4, CIA + 30 mg/kg
  Average animal body weight percent change: 0.47%
  Mean animal body weight: 163 g
Day 5, CIA + 3 mg/kg
  Average animal body weight percent change: 1.81%
  Mean animal body weight: 168 g
Day 5, CIA + 10 mg/kg
  Average animal body weight percent change: 1.43%
  Mean animal body weight: 165 g
Day 5, CIA + 30 mg/kg
  Average animal body weight percent change: 0.90%
  Mean animal body weight: 163 g
Day 6, 3 mg/kg
  Detailed Clinical Scores, left forelimb: 0
  Detailed Clinical Scores, right forelimb: 0
  Detailed Clinical Scores, right hind limb: 0
Day 6, 10 mg/kg
  Detailed Clinical Scores, left forelimb: 0
  Detailed Clinical Scores, left hind limb: 0
  Detailed Clinical Scores, right forelimb: 0
  Detailed Clinical Scores, right hind limb: 0
  Detailed Clinical Scores, score: 0
Day 6, 30 mg/kg
  Detailed Clinical Scores, left forelimb: 0
  Detailed Clinical Scores, left hind limb: 0
  Detailed Clinical Scores, right forelimb: 0
  Detailed Clinical Scores, right hind limb: 0
  Detailed Clinical Scores, score: 0
Day 6, CIA + 3 mg/kg
  Average animal body weight percent change: 3.40%
  Mean animal body weight: 171 g
Day 6, CIA + 10 mg/kg
  Average animal body weight percent change: 1.77%
  Mean animal body weight: 165 g
Day 6, CIA + 30 mg/kg
  Average animal body weight percent change: 0.03%
  Mean animal body weight: 162 g
Day 7, CIA + 3 mg/kg
  Average animal body weight percent change: 4.80%
  Mean animal body weight: 173 g
Day 7, CIA + 10 mg/kg
  Average animal body weight percent change: 2.23%
  Mean animal body weight: 166 g
Day 7, CIA + 30 mg/kg
  Average animal body weight percent change: 0.29%
  Mean animal body weight: 162 g
Day 8, CIA + 3 mg/kg
  Average animal body weight percent change: 4.69%
  Mean animal body weight: 173 g
Day 8, CIA + 10 mg/kg
  Average animal body weight percent change: 2.82%
  Mean animal body weight: 167 g
Day 8, CIA + 30 mg/kg
  Average animal body weight percent change: 1.21%
  Mean animal body weight: 164 g
Day 9, CIA + 3 mg/kg
  Average animal body weight percent change: 5.59%
  Mean animal body weight: 174 g
Day 9, CIA + 10 mg/kg
  Average animal body weight percent change: 4.86%
  Mean animal body weight: 170 g
Day 9, CIA + 30 mg/kg
  Average animal body weight percent change: 2.81%
  Mean animal body weight: 166 g
Day 10, CIA + 3 mg/kg
  Average animal body weight percent change: 6.84%
  Mean animal body weight: 176 g
Day 10, CIA + 10 mg/kg
  Average animal body weight percent change: 4.86%
  Mean animal body weight: 170 g
Day 10, CIA + 30 mg/kg
  Average animal body weight percent change: 2.27%
  Mean animal body weight: 166 g
Day 11, CIA + 3 mg/kg
  Average animal body weight percent change: 7.79%
  Mean animal body weight: 178 g
Day 11, CIA + 10 mg/kg
  Average animal body weight percent change: 5.09%
  Mean animal body weight: 171 g
Day 11, CIA + 30 mg/kg
  Average animal body weight percent change: 2.22%
  Mean animal body weight: 165 g
Day 12, 3 mg/kg
  Detailed Clinical Scores, left forelimb: 0
Day 12, 3 mg/kg, 3 mg/kg
  Detailed Clinical Scores, left hind limb: 1
  Detailed Clinical Scores, right forelimb: 0 (6×) and 1 (2×)
Day 12, 10 mg/kg
  Detailed Clinical Scores, left forelimb: 0
  Detailed Clinical Scores, right forelimb: 0
Day 12, 10 mg/kg, 10 mg/kg
  Detailed Clinical Scores, left hind limb: 1 (2×) and 0 (2×)
  Detailed Clinical Scores, right hind limb: 2 and 0 (2×)
  Detailed Clinical Scores, score: 1 (2×) and 2 and 0
Day 12, 30 mg/kg
  Detailed Clinical Scores, left forelimb: 0
  Detailed Clinical Scores, left hind limb: 0
  Detailed Clinical Scores, right forelimb: 0
Day 12, 30 mg/kg, 30 mg/kg
  Detailed Clinical Scores, right hind limb: 1 and 0 (5×)
  Detailed Clinical Scores, score: 1 and 0 (4×)
Day 12, CIA + 3 mg/kg
  Average animal body weight percent change: 8.18%
  Mean animal body weight: 178 g
Day 12, CIA + 10 mg/kg
  Average animal body weight percent change: 4.18%
  Mean animal body weight: 169 g
